{
  "source": "paper PMC8652888",
  "about": "“Angiogenesis, Anti-Tumor, and Anti-Metastatic Activity of Novel α-Substituted Hetero-Aromatic Chalcone Hybrids as Inhibitors of Microtubule Polymerization” (Frontiers in Chemistry, 2021)",
  "key": {"[1]": {"test_system": "MCF-7, U937, HepG2 and MGC-803 cells", "assay": "Antiproliferative activity, cancer cell panel (text summaries)", "assay_type": "cell-based, human", "conditions": "U937, MCF7, HepG2; read-out: IC50 against three cancer cells", "protocol": "The synthesized compounds were first evaluated for their cytotoxic effect on MCF-7 (human breast adenocarcinoma), U937 (histiocytic lymphoma cancer), HepG2 (human liver cancer) cells, and MGC-803 (human gastric cancer) using the SRB and CCK-8 assay. As reference compounds CA-4 and colchicine were included.\nThe primary tumor cells were purchased from a professional biomedical company. First, the primary tumor cells were incubated in a cell culture incubator at 37°C and 5% CO2. After the cell fusion reached 85%–95%, subculture was performed, and the tumor cells obtained at this time were used for subsequent related experiments. The CCK-8 method was used to inhibit the proliferation of U937 tumor cells, and the SRB method was used to inhibit the proliferation of MCF7 and HepG2 tumor cells.\nCells were distributed into 96-well plates with a density of 3 × 10^3–4 × 10^3 cells per well and incubated for 24 h in a 5% CO2 incubator at 37°C, followed by treatment with study compounds at different concentrations at 37°C for 72 h. One hundred microliters of 10% (w/v) trichloroacetic acid was added to each well, fixed at 4°C for 30 min, and dried at 65°C. Then 100 μl of 0.4% SRB was added to each well and stained on a shaker for 20 min at room temperature. The excess dye solution was washed with newly prepared 1% glacial acetic acid and dried at 65°C. One hundred fifty microliters of 10 mM unbuffered Trisbase was added to each well of the plate and shaken for 5 min to dissolve the dye. The microplate reader measured the optical density (OD) at a wavelength of 560 nm.\nThe cells in the logarithmic growth phase were seeded in a 96-well plate at 8,000/well, and the drug-containing medium and cell suspension were added to the well. Three wells were added with the blank medium as the blank group. The 96-well plate was incubated for 72 h in a 37°C, 5% CO2 incubator. The 10 μl of CCK-8 dye solution was added to each well, and the incubation continued for 3–4 h."}, "HUVECs [2]": {"test_system": "HUVECs", "assay": "Wound healing assay", "assay_type": "cell-based, human", "conditions": "1, 5, 25 μΜ, 48 h", "protocol": "(§1) A wound healing assay was, thus, performed to evaluate the capacity of 7m to inhibit cell motility. […] Then the invasion inhibitory activities of 7m were further detected using Transwell assay with HUVECs cells treated with 0, 1, 5, and 25 μΜ of 7m. In this assay, […] were seeded into upper chambers which were pre-coated with Matrigel matrix in order to evaluate the cellular invasion.\nMCF-7 cells and HUVECs cells were grown in 24-well plates at a density of 1 × 10^6 cells per well for 24 h. Scratches were made in confluent monolayers by […] pipette tips. The media containing different concentrations of 7m were added to the Petri dishes. […] The migration distance of cells migrated to the wound area was measured manually."}, "HUVECs [3]": {"test_system": "HUVECs", "assay": "Tube formation assay", "assay_type": "cell-based, human", "conditions": "1, 5, 25 μM, 6–8 h", "protocol": "HUVECs (human umbilical vein endothelial cells) grown on Matrigel were commonly used as a tube formation model and also a widely studied human endothelial cell type in angiogenesis, for their ability to alter their shape to resemble capillaries ([Aranda and Owen, 2009]). […] We therefore examined the effects of 7m on HUVEC tube formation to evaluate its potential effect on angiogenesis.\nThe HUVECs were seeded in 96-well plates and cultured for 24 h, and then incubated with 1, 5, and 25 μM 7m. The EC Matrigel matrix was thawed overnight at 4°C. The HUVECs, suspended in F12K, were seeded in a 96-well culture plate at a cell density of 10,000 cells/well after 45 min of Matrigel polymerization at 37°C. Then they were treated with different concentrations of 7m or carrier at 37°C for 6–8 h. Then the morphological changes of the formed cells and tubes under an inverted microscope were observed, and pictures were taken."}, "normal liver LO2 cells": {"test_system": "normal liver LO2 cells", "assay": "Growth inhibition of normal cells", "assay_type": "cell-based, human"}, "HUVECs [4]": {"test_system": "HUVECs", "assay": "Transwell cell invasion experiment", "assay_type": "cell-based, human", "conditions": "1, 5, 25 μΜ", "protocol": "as §1\nThe upper chamber of the Transwell chamber was filled with cells resuspended in serum-free medium, 6 × 10^4 cells per well, 100 μl per well, and the lower chamber was added with 10% FBS-containing medium prepared with different concentrations of 7m. The cells were allowed to migrate for 48 h at 37°C in an atmosphere of 5% CO2. Then the migration of cells to the underside of the filter was determined by crystal violet staining."}, "[5]": {"test_system": "MCF-7 cells implanted in zebrafish embryos", "assay": "Zebrafish xenograft assay", "assay_type": "in vivo", "conditions": "2.5, 5, 7.5 μΜ, 72 h", "protocol": "To examine the in vivo anti-tumor and anti-metastasis potency of 7m, we implanted Cell-Tracker Red CMTPX-labeled MCF-7 cells into the yolk of Tg (flk: EGFP) 48 hpf embryos, and different concentrations of 7m (2.5, 5, 7.5 μΜ) were added. The intensity of the red fluorescence is proportional to the size of the xenograft tumor. After 72 h, the effects of 7m on the tumor mass development and cancer cell metastasis were assessed by fluorescence microscopy. […] Without drug treatment, MCF-7 cells disseminated and migrated widely away from the original area, and some tumor cells even migrated into the blood vessels of the zebrafish tail at 72 hpf.\nThe tumor cells MCF-7 were labeled with Red CMTPX, and then the labeled tumor cells were digested and resuspended. A hundred labeled tumor cells per 1 nl were injected into the zebrafish embryos developed for 48 h. The zebrafish injected with tumor cells were incubated in an incubator at 28.5°C for about 1 h under the action of different concentrations of 7m and then were transferred to an incubator at 35°C."}, "[6]": {"test_system": "microtubule network in MCF-7 cells", "assay": "Immunofluorescent staining of microtubule network", "assay_type": "cell-based, human", "conditions": "0.4 μM, 24 h", "protocol": "Microtubule dynamics play an essential role in cancer cell growth. To examine whether compound 7m is able to disrupt microtubule dynamics, an immunofluorescent assay was carried out in MCF-7 cells.\nThen the cells were washed with PBS three times. After permeabilization with 0.25% Triton X-100 for 5 min, the cells were washed with PBS three times and blocked in 5% bovine serum albumin (BSA) for 40 min. The cells were incubated with rabbit anti-α-tubulin primary antibody containing 5% BSA at room temperature for 5–6 h and washed with PBS three times. Cells were finally visualized under a fluorescence microscope."}},
  "note": "Values joined by “and” are separate entries in the source; they are usually repeats but may differ in a detail not shown here. Equal entries are not always repeated. Where two headings read alike, the source gives them in different places.",
  "data": [
    {"substance": "3-(benzofuran-6-yl)-2-methyl-1-(3,4,5-trimethoxyphenyl)prop-2-en-1-one [Compound 7m]", "values": [
      {"measurement": "IC50", "setting": "[1]", "result": "70 to 183", "unit": "nM"},
      {"measurement": "closure of wound scratching", "setting": "HUVECs [2]", "result": "obviously decreased the closure of wound scratching"},
      {"measurement": "width and length of tubule-like network formation", "setting": "HUVECs [3]", "result": "reduced in a concentration-dependent manner"},
      {"measurement": "Selectivity ratio", "setting": "normal liver LO2 cells; (IC50 human normal cells LO2)/(IC50 MCF7)", "result": 4.9},
      {"measurement": "IC50", "setting": "normal liver LO2 cells; three single determinations, read-out: L02 (raw data of table 3, IC50)", "result": "885 nM and 871 nM and 914 nM"},
      {"measurement": "IC50", "setting": "normal liver LO2 cells; triplicate, read-out: IC50 ± SD, LO2", "result": "890 ± 14", "unit": "nM"},
      {"measurement": "invasion ability of cells", "setting": "HUVECs [4]", "result": "invasion ability of cells gradually weakened"},
      {"measurement": "fluorescence intensity and tumor size of MCF-7 cells vs vehicle", "setting": "[5]", "result": "reduced the fluorescence intensity and tumor size"},
      {"measurement": "migration number of implanted MCF-7 cells", "setting": "[5]", "result": "notably reduced in a dose-dependent manner"},
      {"measurement": "effect on microtubule organization", "setting": "[6]", "result": "significant disruption of microtubule organization"}
    ]}
  ]
}
